Laboratory results: patent US9221985B2, “Solvent compositions” (TBF Environmental Technology, Inc., priority 2013, dated 2015)
Read-outs that look alike come from different tables or passages of the source.

What was measured:
[1] = Evaporation rate relative to n-butyl acetate / xylene; type: physicochemical
Description: […]. […] Without being bound to any particular theory, the “tail” solvent may slow the drying of a coating towards the end, allowing time for it to flow and level, and preventing dry spray, thereby improving the film appearance.
The evaporation rate of Formulation 1vs xylene was examined (FIG. 1). Formulation 1 was faster evaporating than xylene by a factor of 1.63-1.65. However it was apparent that the evaporation rate of Formulation 1 slowed towards the end. This slower “Tail” would aid in flow and leveling and help prevent dry spray.

[2] = cited from earlier work
[3] = Hansen solubility parameters
Description: In some embodiments, a solvent composition according to the present disclosure includes an acetate ester, such as MA, EA, or TBAc, in combination with one or more additional reagents to increase dispersion and decrease hydrogen bonding and/or to decrease the polarity of the solvent composition.

[4] = Physical/chemical characteristics of the solvents (specific gravity, flash point, boiling point, viscosity, surface tension, volatility); conditions: for Surface tension: at 20° C.
[5] = Viscosity of Paraloid B-66 DMC acrylic resin with reduction in solids; type: physicochemical
[6] = Solvency or reduction characteristics: viscosity of epoxy resin reduced with solvent; type: physicochemical
[7] = relative to n-butyl acetate = 1
[8] = reduced to 35.0% non-volatile with the solvent
[9] = reduced to 40.0% non-volatile with the solvent
[10] = EPON 828 reduced to 95% solids content by weight

In the case of `COC(C)=O` [MA, methyl acetate], the “Evaporation rate (n-butyl acetate = 1)” value [1, 7] is listed as 6.2, the solubility in water ([2]; in water at room temperature) is listed as 25% and the stability ([2]; strong aqueous bases or aqueous acids) is listed as “not stable in the presence of strong aqueous bases or aqueous acids”. The “δ (Hansen solubility parameter)” value [3] was 9.5 cal^1/2 cm^−3/2, the “δD (dispersion)” value [3] was 7.6 cal^1/2 cm^−3/2 and the “δH (hydrogen bonding)” value [3] was 3.7 cal^1/2 cm^−3/2. For the same compound, the “δP (polar)” value [3] was 3.5 cal^1/2 cm^−3/2, the “Boiling Point” value [4] was 56 °C and the “Viscosity @ 20° C.” value [4] was 0.37 (mPa · s) cP. For the same compound, the “Specific Gravity (@25° C.)” value [4] was 0.93, the “Flashpoint (TCC)” value [4] was −4 °C and the Surface tension [4] was 24.8 dyn/cm.

For xylene [Xylenes], the “Viscosity of Paraloid B-66 DMC” value [5, 8] was 580 cps, the “Viscosity of Paraloid B-66 DMC” value [5, 9] was 1500 cps and the “Evaporation rate (n-butyl acetate = 1)” value [1] was 0.9. The “δD (dispersion)” value [3] was 9.2 cal^1/2 cm^−3/2, the “δH (hydrogen bonding)” value [3] was 1.15 cal^1/2 cm^−3/2 and the “δP (polar)” value [3] was 1.3 cal^1/2 cm^−3/2. For the same compound, the “Viscosity @ 20 RPM” value ([6]; EPON 828, 50% solids content) was 13 cps, the “Viscosity @ 20 RPM” value ([6]; EPON 828, 55% solids content) was 17 cps and the “Viscosity @ 20 RPM” value ([6]; EPON 828, 60% solids content) was 19 cps. For the same compound, the “Viscosity @ 20 RPM” value ([6]; EPON 828, 65% solids content) was 28 cps, the “Viscosity @ 20 RPM” value ([6]; EPON 828, 70% solids content) was 40 cps and the “Viscosity @ 20 RPM” value ([6]; EPON 828, 75% solids content) was 76 cps. For the same compound, the “Viscosity @ 20 RPM” value ([6]; EPON 828, 80% solids content) was 148 cps, the “Viscosity @ 20 RPM” value ([6]; EPON 828, 85% solids content) was 330 cps and the “Viscosity @ 20 RPM” value ([6]; EPON 828, 90% solids content) was 880 cps. The “Viscosity @ 20 RPM” value [6, 10] was 3350 cps, the “Boiling Point” value [4] was 110.6-144 °C and the “Viscosity @ 20° C.” value [4] was 0.34-0.8 (mPa · s) cP. For the same compound, the “Specific Gravity (@25° C.)” value [4] was 0.87, the “Flashpoint (TCC)” value [4] was 17-25 °C and the “Flashpoint (TCC)” value ([4]; listed as xylene) was 30 °C. For the same compound, the Surface tension [4] was 25.32-28.27 dyn/cm.

In the case of `FC(F)(F)c1ccc(Cl)cc1` [PCBTF, parachlorobenzotrifluoride], the “Viscosity of Paraloid B-66 DMC” value [5, 8] is reported as 450 cps, the “Viscosity of Paraloid B-66 DMC” value [5, 9] is reported as 1050 cps and the “Evaporation rate (n-butyl acetate = 1)” value [1, 7] is reported as 0.9. The “δ (Hansen solubility parameter)” value [3] was 9.15 cal^1/2 cm^−3/2, the “δD (dispersion)” value [3] was 8.8 cal^1/2 cm^−3/2 and the “δH (hydrogen bonding)” value [3] was 1.9 cal^1/2 cm^−3/2. For the same compound, the “δP (polar)” value [3] was 2.9 cal^1/2 cm^−3/2, the “Viscosity @ 20 RPM” value ([6]; EPON 828, 50% solids content) was 27 cps and the “Viscosity @ 20 RPM” value ([6]; EPON 828, 55% solids content) was 38 cps. The “Viscosity @ 20 RPM” value ([6]; EPON 828, 60% solids content) was 52 cps, the “Viscosity @ 20 RPM” value ([6]; EPON 828, 65% solids content) was 91 cps and the “Viscosity @ 20 RPM” value ([6]; EPON 828, 70% solids content) was 153 cps. For the same compound, the “Viscosity @ 20 RPM” value ([6]; EPON 828, 75% solids content) was 278 cps, the “Viscosity @ 20 RPM” value ([6]; EPON 828, 80% solids content) was 544 cps and the “Viscosity @ 20 RPM” value ([6]; EPON 828, 85% solids content) was 1010 cps. The “Viscosity @ 20 RPM” value ([6]; EPON 828, 90% solids content) was 1900 cps, the “Viscosity @ 20 RPM” value [6, 10] was 5125 cps and the “Boiling Point” value [4] was 139 °C. The “Viscosity @ 20° C.” value [4] was 0.79 (mPa · s) cP, the “Specific Gravity (@25° C.)” value [4] was 1.34 and the “Flashpoint (TCC)” value [4] was 109 °C. The Surface tension [4] was 25 dyn/cm.

With `Cc1ccccc1` [Toluene, toluene] the “Evaporation rate (n-butyl acetate = 1)” value [1, 7] was 1.9, the “δD (dispersion)” value [3] was 8.8 cal^1/2 cm^−3/2 and the “δH (hydrogen bonding)” value [3] was 0.98 cal^1/2 cm^−3/2. The “δP (polar)” value [3] was 0.68 cal^1/2 cm^−3/2, the “Viscosity @ 20° C.” value [4] was 0.59 (mPa · s) cP and the “Specific Gravity (@25° C.)” value [4] was 0.86. The “Flashpoint (TCC)” value [4] was 16 °C and the Surface tension [4] was 27.73 dyn/cm.

With `COC(=O)OC` [DMC, dimethyl carbonate] the “Viscosity of Paraloid B-66 DMC” value [5, 8] was 370 cps and the “Viscosity of Paraloid B-66 DMC” value [5, 9] was 970 cps.

With `CC(=O)OC(C)(C)C` [TBAc, tert-butyl acetate] the “Viscosity of Paraloid B-66 DMC” value [5, 8] was 290 cps, the “Viscosity of Paraloid B-66 DMC” value [5, 9] was 780 cps and the “Evaporation rate (n-butyl acetate = 1)” value [1] was 2.8. For the same compound, the “δD (dispersion)” value [3] was 7 cal^1/2 cm^−3/2, the “δH (hydrogen bonding)” value [3] was 2.9 cal^1/2 cm^−3/2 and the “δP (polar)” value [3] was 1.7 cal^1/2 cm^−3/2. For the same compound, the “Viscosity @ 20 RPM” value ([6]; EPON 828, 50% solids content) was 15 cps, the “Viscosity @ 20 RPM” value ([6]; EPON 828, 55% solids content) was 19 cps and the “Viscosity @ 20 RPM” value ([6]; EPON 828, 60% solids content) was 22 cps. For the same compound, the “Viscosity @ 20 RPM” value ([6]; EPON 828, 65% solids content) was 26 cps, the “Viscosity @ 20 RPM” value ([6]; EPON 828, 70% solids content) was 81 cps and the “Viscosity @ 20 RPM” value ([6]; EPON 828, 75% solids content) was 93 cps. The “Viscosity @ 20 RPM” value ([6]; EPON 828, 80% solids content) was 192 cps, the “Viscosity @ 20 RPM” value ([6]; EPON 828, 85% solids content) was 430 cps and the “Viscosity @ 20 RPM” value ([6]; EPON 828, 90% solids content) was 1150 cps. For the same compound, the “Viscosity @ 20 RPM” value [6, 10] was 4250 cps, the “Boiling Point” value [4] was 98 °C and the “Viscosity @ 20° C.” value [4] was 0.7 (mPa · s) cP. The “Specific Gravity (@25° C.)” value [4] was 0.87, the “Flashpoint (TCC)” value [4] was 16.7 °C and the Surface tension [4] was 22.4 dyn/cm.
